US10149876B2, “Tripterygium wilfordii extracts to overcome chemotherapy resistance” (WESTERN UNIVERSITY OF HEALTH SCIENCES, priority 2012, dated 2018)
“And” between values parts separate entries of the source, which are not always exact repeats. Equal entries are not always repeated. Where two headings read alike, the source gives them in different places.

Test system: BT474-TxR cells
Assay: SRB cell viability assay, Herceptin-resistant BT474-TxR cells
Type: cell-based, human
Conditions: for viability at 0.001 µM / viability at 0.02 µM / viability at 0.067 µM / viability at 0.2 µM / viability at 0.67 µM / viability at 2 µM / viability at 6.7 µM / viability at 20 µM / IC50: Homo sapiens; for viability at 0.001 µM / viability at 0.02 µM / viability at 0.067 µM / viability at 0.2 µM / viability at 0.67 µM / viability at 2 µM / viability at 6.7 µM / viability at 20 µM / mean A at 565 nm: 72 h; for IC50: lapatinib, BT474-TxR
Protocol: PC3-TxR cells were plated into sterile, F-bottom Cellstar® 96 well cell culture plates with lids (Cat #655180, Purchased from Greiner Bio-one, Monroe, N.C.) by placing into each well, 100 μl of medium containing 3000 cells in RPMI 1640 supplemented with 10% fetal bovine serum (Thermo Scientific, Logan, Utah) and a solution of penicillin (100 U/ml) and streptomycin (100 μg/ml) (Life Technologies Grand Island, N.Y.). The cells were at passage 52 at the time of plating. Triplicate wells were assigned to each experimental condition tested, and a 24 hour recovery period for the cells following the seeding of the wells was allowed. During the recovery period, the cells were incubated at 37° C. and 5% CO2.
The LGT-E was prepared by adding an appropriate amount of LGT-E powder to DMSO to form a 500 mg/ml stock solution. The stock solution was alternately vortexed and sonicated until the LGT-E powder went into solution. The stock solution was diluted in RPMI 1640 medium (Mediatech, Manassas, Va., or Life Technologies Grand Island, NY) to reach the desired concentrations of LGT-E (e.g., 12, 25, or 60 μg/ml).
Pretreatment of the cells with LGT-E was carried out by aspirating the media from the wells, followed by adding 50 μl of LGT-E solution containing concentrations of either 12 or 25 μg/ml of LGT-E solution and incubation of the cells for two hours under conditions of 37° C. and 5% CO2.
Media was aspirated from each well, and replaced with a 10% solution of cold trichloroacetic acid (TCA) (Cat #: T6399, purchased from Sigma-Aldrich), and incubated for one hour at 4° C. After the TCA incubation, the TCA solution was aspirated, and the cells were washed five times with tap water. After removing the last wash, the plates were left with lids off at room temperature until the surfaces were dry, which took one to two hours. Then 50 μl of a 0.4% solution of sul-forhodamine B (SRB) sodium salt (Cat #: S9012, purchased from Sigma-Aldrich) was added to each well and the plates were incubated at room temperature for 20 to 30 minutes. Afterwards, the wells were washed five times with a 1% acetic acid solution in 10 mM TRIS base (Cat#: 161-0719, purchased from Bio-Rad Laboratories, Hercules, Calif.). The plates were subsequently left to dry for several hours or overnight. SRB that remained in the dried wells was solubilized by adding 100 μl of SRB solubilization solution (10 mM TRIS base) to each well, and placing the plates either on a gently-moving shaker or letting the plates remain stationary at room temperature until the SRB dissolves, which takes about five to ten minutes. The amount of SRB in each well, which correlated directly to the number of living cells at fixation, was determined spectrophotometrically at an absorbance of 565 nm by a microplate reader.

Question: Which results are given for CS(=O)(=O)CCNCc1ccc(-c2ccc3ncnc(Nc4ccc(OCc5cccc(F)c5)c(Cl)c4)c3c2)o1 [lapatinib]?
Answer: viability at 0.001 µM (Lapatinib 0.001 μM, no LGT-E pre-treatment (control to Table 28)): 100%; viability at 0.001 µM (Lapatinib 0.001 μM, no LGT-E pre-treatment (control to Table 30)): 100%; viability at 0.001 µM (Lapatinib 0.001 μM, pre-treated with 25 μg/ml LGT-E): 100%; viability at 0.001 µM (Lapatinib 0.001 μM, pre-treated with […] LGT-E): 100%; viability at 0.02 µM (Lapatinib 0.02 μM, no LGT-E pre-treatment (control to Table 28)): 97.3%; viability at 0.02 µM (Lapatinib 0.02 μM, no LGT-E pre-treatment (control to Table 30)): 82.6%; viability at 0.02 µM (Lapatinib 0.02 μM, pre-treated with 25 μg/ml LGT-E): 85.8%; viability at 0.02 µM (Lapatinib 0.02 μM, pre-treated with […] LGT-E): 94%; viability at 0.067 µM (Lapatinib 0.067 μM, no LGT-E pre-treatment (control to Table 28)): 97.6%; viability at 0.067 µM (Lapatinib 0.067 μM, no LGT-E pre-treatment (control to Table 30)): 91.8%; viability at 0.067 µM (Lapatinib 0.067 μM, pre-treated with 25 μg/ml LGT-E): 77.3%; viability at 0.067 µM (Lapatinib 0.067 μM, pre-treated with […] LGT-E): 91.3%; viability at 0.2 µM (Lapatinib 0.2 μM, no LGT-E pre-treatment (control to Table 28)): 84.7%; viability at 0.2 µM (Lapatinib 0.2 μM, no LGT-E pre-treatment (control to Table 30)): 76.9%; viability at 0.2 µM (Lapatinib 0.2 μM, pre-treated with 25 μg/ml LGT-E): 67.9%; viability at 0.2 µM (Lapatinib 0.2 μM, pre-treated with […] LGT-E): 70.9%; viability at 0.67 µM (Lapatinib 0.67 μM, no LGT-E pre-treatment (control to Table 28)): 68.7%; viability at 0.67 µM (Lapatinib 0.67 μM, no LGT-E pre-treatment (control to Table 30)): 70.5%; viability at 0.67 µM (Lapatinib 0.67 μM, pre-treated with 25 μg/ml LGT-E): 57.4%; viability at 0.67 µM (Lapatinib 0.67 μM, pre-treated with […] LGT-E): 59.9%; viability at 2 µM (Lapatinib 2 μM, no LGT-E pre-treatment (control to Table 28)): 65.2%; viability at 2 µM (Lapatinib 2 μM, no LGT-E pre-treatment (control to Table 30)): 60.6%; viability at 2 µM (Lapatinib 2 μM, pre-treated with 25 μg/ml LGT-E): 50.4%; viability at 2 µM (Lapatinib 2 μM, pre-treated with […] LGT-E): 53.5%; viability at 6.7 µM (Lapatinib 6.7 μM, no LGT-E pre-treatment (control to Table 28)): 59.4%; viability at 6.7 µM (Lapatinib 6.7 μM, no LGT-E pre-treatment (control to Table 30)): 55.1%; viability at 6.7 µM (Lapatinib 6.7 μM, pre-treated with 25 μg/ml LGT-E): 37.1%; viability at 6.7 µM (Lapatinib 6.7 μM, pre-treated with […] LGT-E): 46.3%; viability at 20 µM (Lapatinib 20 μM, no LGT-E pre-treatment (control to Table 28)): 52.3%; viability at 20 µM (Lapatinib 20 μM, no LGT-E pre-treatment (control to Table 30)): 43.8%; viability at 20 µM (Lapatinib 20 μM, pre-treated with 25 μg/ml LGT-E): 24.9%; viability at 20 µM (Lapatinib 20 μM, pre-treated with […] LGT-E): 40.6%; IC50 (LGT-E 25 μg/ml pre-treatment, read-out: IC50 of drug when cells pre-treated with Chemosensitizing Agent before drug treatment): 2 µM and 1.16 µg/mL; IC50 (line of LGT-E 25 μg/ml, read-out: IC50 of drug when cells treated with drug only): 11 µM and 6.39 µg/mL; mean A at 565 nm (Lapatinib 0.001 μM, no LGT-E pre-treatment (control to Table 28), background = 0.045): 1.135; mean A at 565 nm (Lapatinib 0.001 μM, no LGT-E pre-treatment (control to Table 30), background = 0.047): 1.176; mean A at 565 nm (Lapatinib 0.001 μM, pre-treated with 25 μg/ml LGT-E, background = 0.047): 0.957; mean A at 565 nm (Lapatinib 0.001 μM, pre-treated with […] LGT-E, background = 0.045): 0.997; mean A at 565 nm (Lapatinib 0.02 μM, no LGT-E pre-treatment (control to Table 28), background = 0.045): 1.104; mean A at 565 nm (Lapatinib 0.02 μM, no LGT-E pre-treatment (control to Table 30), background = 0.047): 0.971; mean A at 565 nm (Lapatinib 0.02 μM, pre-treated with 25 μg/ml LGT-E, background = 0.047): 0.821; mean A at 565 nm (Lapatinib 0.02 μM, pre-treated with […] LGT-E, background = 0.045): 0.937; mean A at 565 nm (Lapatinib 0.067 μM, no LGT-E pre-treatment (control to Table 30), background = 0.047): 1.079; mean A at 565 nm (Lapatinib 0.067 μM, pre-treated with 25 μg/ml LGT-E, background = 0.047): 0.740; mean A at 565 nm (Lapatinib 0.067 μM, pre-treated with […] LGT-E, background = 0.045): 0.911; mean A at 565 nm (Lapatinib 0.2 μM, no LGT-E pre-treatment (control to Table 28), background = 0.045): 0.961; mean A at 565 nm (Lapatinib 0.2 μM, no LGT-E pre-treatment (control to Table 30), background = 0.047): 0.905; mean A at 565 nm (Lapatinib 0.2 μM, pre-treated with 25 μg/ml LGT-E, background = 0.047): 0.650; mean A at 565 nm (Lapatinib 0.2 μM, pre-treated with […] LGT-E, background = 0.045): 0.707; mean A at 565 nm (Lapatinib 0.67 μM, no LGT-E pre-treatment (control to Table 28), background = 0.045): 0.780; mean A at 565 nm (Lapatinib 0.67 μM, no LGT-E pre-treatment (control to Table 30), background = 0.047): 0.829; mean A at 565 nm (Lapatinib 0.67 μM, pre-treated with 25 μg/ml LGT-E, background = 0.047): 0.549; mean A at 565 nm (Lapatinib 0.67 μM, pre-treated with […] LGT-E, background = 0.045): 0.598; mean A at 565 nm (Lapatinib 2 μM, no LGT-E pre-treatment (control to Table 28), background = 0.045): 0.739; mean A at 565 nm (Lapatinib 2 μM, no LGT-E pre-treatment (control to Table 30), background = 0.047): 0.712; mean A at 565 nm (Lapatinib 2 μM, pre-treated with 25 μg/ml LGT-E, background = 0.047): 0.482; mean A at 565 nm (Lapatinib 2 μM, pre-treated with […] LGT-E, background = 0.045): 0.533; mean A at 565 nm (Lapatinib 6.7 μM, no LGT-E pre-treatment (control to Table 28), background = 0.045): 0.674; mean A at 565 nm (Lapatinib 6.7 μM, no LGT-E pre-treatment (control to Table 30), background = 0.047): 0.648; mean A at 565 nm (Lapatinib 6.7 μM, pre-treated with 25 μg/ml LGT-E, background = 0.047): 0.355; mean A at 565 nm (Lapatinib 6.7 μM, pre-treated with […] LGT-E, background = 0.045): 0.461; mean A at 565 nm (Lapatinib 20 μM, no LGT-E pre-treatment (control to Table 28), background = 0.045): 0.594; mean A at 565 nm (Lapatinib 20 μM, no LGT-E pre-treatment (control to Table 30), background = 0.047): 0.515; mean A at 565 nm (Lapatinib 20 μM, pre-treated with 25 μg/ml LGT-E, background = 0.047): 0.239; mean A at 565 nm (Lapatinib 20 μM, pre-treated with […] LGT-E, background = 0.045): 0.405
